No end group written: not given here. *: point of attachment. pNA = O=[N+]([O-])c1ccc(N*)cc1
Tests used:
CtHtrA [1] = target: T1, CtHtrA (Chlamydia trachomatis serovar D, UniProt P18584); assay: Oligomerisation assay (glutaraldehyde crosslinking, 3-8% TrisAcetate gel, silver stain); assay type: biochemical; conditions: wild type CtHtrA 2 mg/ml, 100 mM sodium phosphate pH 7.0, 10 mins at 37°C, 0.5% glutaraldehyde fixation
T1 construct: His-tag; made in house; host or cells: E. coli BL21 (DE3), plasmid pETHtrA
T1 sequence (P18584 17-497): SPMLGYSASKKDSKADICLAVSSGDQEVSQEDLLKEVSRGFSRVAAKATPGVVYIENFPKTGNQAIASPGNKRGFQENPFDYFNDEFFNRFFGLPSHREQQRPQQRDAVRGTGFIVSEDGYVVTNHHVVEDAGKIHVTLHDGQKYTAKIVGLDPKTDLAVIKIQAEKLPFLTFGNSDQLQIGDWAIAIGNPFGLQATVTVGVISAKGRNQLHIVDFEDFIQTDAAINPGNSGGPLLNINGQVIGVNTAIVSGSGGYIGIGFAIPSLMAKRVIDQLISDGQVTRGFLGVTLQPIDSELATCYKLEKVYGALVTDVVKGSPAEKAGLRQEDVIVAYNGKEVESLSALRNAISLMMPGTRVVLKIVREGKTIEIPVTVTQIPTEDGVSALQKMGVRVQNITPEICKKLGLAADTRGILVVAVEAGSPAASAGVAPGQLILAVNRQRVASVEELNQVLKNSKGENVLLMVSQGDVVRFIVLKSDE
Procedure: (§1) E. coli DegP proteolysis activation involves the transition from resting hexamers via trimers to 12- and 24-mers following the peptide activator binding to the PDZ1 binding cleft. CtHtrA oligomer formation induced by Act1 addition was examined after incubation for 10 mins at 37°C. The wild type and mutant proteins were incubated with either the ß-casein based activator peptide (Act1), or with whole insulin (intact), or in the absence of any activator as a control. CtHtrA incubated in the absence of any added activators formed 24-mers with some hexamers detected after 10 mins (Fig. 5). […] The R299W mutant was present as hexamer and 24-mer in the control with no activator. […] The L302N mutant was not detected in any higher oligomeric form under any conditions. L302N was detected as faint hexamer and trimer but mostly monomer under all tested conditions (not visible on these gels). […] I365D was detected as hexamers, trimers, 12-mers, and some 24-mers when incubated in the absence of activators.
(§2) The oligomerisation of HtrA into 12- and 24-mer complexes has been independently detected for E. coli HtrA (DegP). The oligomerisation of HtrA (DegP) was triggered by peptides from digested ß-casein [18]. Assays to detect whether CtHtrA and site directed mutant protein oligomerisation was triggered by substrates were conducted essentially as previously described (Merdanovic et al., 2010). Briefly, 2 mg/ml protein solutions in 100 mM sodium phosphate buffer pH 7.0 were pre-incubated to the required temperature. The ligands (activator peptide, or insulin) were added and at 10 min, and the proteins were fixed using 0.5% glutaraldehyde. Samples were fixed at room temperature for 2 min prior to addition of 1 M Tris pH 7.5 to remove any excess glutaraldehyde. Samples were incubated for another 10 min at room temperature prior to addition of SDS PAGE reducing loading buffer. The protein samples were examined on 3–8% TrisAcetate gradient polyacrylamide gels (Novex, Invitrogen) by silver staining. The proteins used in this study were not initially denatured by treatment with urea as, the refolding, formation of oligomers, and protease activity was never successfully detected with denatured CtHtrA. All assays were conducted in duplicate on three separate occasions with at least two gels of each experiment completed for each assay condition.

CtHtrA [2] = target: T1, CtHtrA; assay: Activation of CtHtrA cleavage of Bcas1 substrate by added activator; assay type: biochemical; conditions: substrate Bcas1 (MCA-ENLHLPLPIIF-DNP), fluorimetric, 37°C
Procedure: To determine if the addition of a second peptide to the protease assays could activate or increase CtHtrA proteolysis, two activator peptides were tested in the CtHtrA cleavage of the model ß-casein peptide substrate Bcas1. The first was based on the ß-casein C-terminal sequence (Act1: NH2-VLGPVRGPFPIIV-OH) and the second on insulin b chain C-terminal sequence (Act2: NH2-CGELGFFYTP-OH).
Finally, in order to determine if the 24-mer (highest amount with MOMP protein, or Act1), or 12-mer, or both, corresponds to enhanced protease activity, the incubations of CtHtrA and these potential in vivo activators were used for protease assays with the Bcas1 substrate (Fig. 6). […] The presence of the majority of CtHtrA as higher order oligomers correlated with an increased rate of proteolysis for CtHtrA, particularly when these oligomers were predominately 24-mers.
The purified recombinant protein was examined by Coomassie stained polyacrylamide gels and activity was checked using ß-casein cleavage assays prior to use in peptide assays. Briefly, this involved incubating 2 µg of the protease with 10 µg of ß-casein in 50 mM Tris pH 7.0, 20 mM MgCl2 for 2 h prior to examining the assays by SDS PAGE (ß-casein and protease only controls were always conducted). Protease assays using peptides were conducted using custom synthesised peptides (Mimotopes). […] Protease assays using pNA labelled peptides were conducted using the xMARK Microplate spectrophotometer (Bio-Rad) at 405 nm, incubated at 37°C, with a reading taken every 10 s for 30 min. The maximum slope over a minimum of 8 readings was used for the data analysis. […] The assays were excited at 340 nm and emission was detected at 405 nm with a gain of 1000, the assays were monitored every 20 s or at the minimum cycle time for up to 40 min. […] The assay results shown for the fluorescent compounds have been normalised for the amount of fluorescent emission detected using a standard curve of known concentrations of the MCA fluorophore under the identical assay conditions. […]

CtHtrA [3] = target: T1, CtHtrA; assay: MS and MS-MS analysis of peptide cleavage products; assay type: biochemical; conditions: peptide 150 µM digested with CtHtrA (71 µg); sites MCA-ENLH↓LPLPI↓IF-DNP
Procedure: Bcas1 and Act1 peptides (150 µM concentration) digested with CtHtrA (71 µg) were analysed by online LC/MS/MS using a QStar Pulsar I (Applied Biosystems) in […] mode. Data acquired were converted into mzXML format using proteowizard (v2) and searched using ([…], the global proteome machine, ftp://ftp.thegpm.org/fasta/cRAP), against CtHtrA and Act1 and Bcas1 peptide sequences with an included decoy database of the reverse sequence for each protein. The search also included potential mass modifications accounting for the additional […] moieties on the N and C peptide termini, respectively. Matches with an expected ratio of <1 were considered identified. All raw data and mass spectra can be made available on request.

CtHtrA [4] = target: T1, CtHtrA; assay: Protease assay with MCA/DNP-labelled fluorimetric peptides (REPLi library); assay type: biochemical; conditions: peptide based on the optimal activity for human HtrA2; data not shown
Text: To further refine the CtHtrA substrate specificity, the REPLi peptide library (Mimotopes, Melbourne) was screened. The REPLi library peptides consist of a randomised tripeptide sequence flanked on either side by two GGG tripeptide sequences. The N-terminus of each peptide was labelled with a 7-methoxycoumarin (MCA) fluorophore, and the C-terminus was labelled with a 2,4-dinitrophenyl (DNP) fluorescent quencher. The peptides were pooled according to structural similarity and selected wells with high activity were then rescreened as individual peptides to identify the peptides cut by CtHtrA (Fig. S2, all wells where CtHtrA activity was observed). […] Cleavage at the glycine or terminal fluorophore or quenchers was never detected for any peptide. […]
The purified recombinant protein was examined by Coomassie stained polyacrylamide gels and activity was checked using ß-casein cleavage assays prior to use in peptide assays. […] Protease assays using pNA labelled peptides were conducted using the xMARK Microplate spectrophotometer (Bio-Rad) at 405 nm, incubated at 37°C, with a reading taken every 10 s for 30 min. The maximum slope over a minimum of 8 readings was used for the data analysis. […] The assays were excited at 340 nm and emission was detected at 405 nm with a gain of 1000, the assays were monitored every 20 s or at the minimum cycle time for up to 40 min. […]

CtHtrA [5] = target: T1, CtHtrA; assay: Protease assay and kinetic analysis with pNA-labelled peptide substrates; assay type: biochemical; conditions: pNA peptide as substrate, absorbance 405 nm, 37°C; for Vmax: reading every 10 s for 30 min
Procedure: A series of peptide substrates were then designed based on the cleavage sites previously identified in ß-casein [3], PICS results, previously published substrates for E. coli DegP [22], and the REPLi library screening results. These peptides were assayed against CtHtrA and kinetic analysis was conducted (Table 2). […] Generally, peptides with only 4 residues or less were not cleaved. […] The preference for K at P3 implies a salt bridge may be involved in substrate coordination in the CtHtrA active site in the substrate pocket or subsite S3. In a direct comparison between MFRLI-pNA and MFQLI-pNA, R was clearly the most preferred. […] The Km for each of these, however, was at least an order of magnitude higher than the Km for MFKLI-pNa. The results from individually synthesised peptides (Table 2) and the peptides sourced from the REPLi library (Table 1) were consistent in that non-polar sequences are most preferred. […] (Fig. S3).
The purified recombinant protein was examined by Coomassie stained polyacrylamide gels and activity was checked using ß-casein cleavage assays prior to use in peptide assays. Briefly, this involved incubating 2 µg of the protease with 10 µg of ß-casein in 50 mM Tris pH 7.0, 20 mM MgCl2 for 2 h prior to examining the assays by SDS PAGE (ß-casein and protease only controls were always conducted). Protease assays using peptides were conducted using custom synthesised peptides (Mimotopes). The peptides were purified to 95% purity (or greater) and were typically resuspended in 50% isopropanol, although some peptides required 100% DMSO. Protease assays using pNA labelled peptides were conducted using the xMARK Microplate spectrophotometer (Bio-Rad) at 405 nm, incubated at 37°C, with a reading taken every 10 s for 30 min. The maximum slope over a minimum of 8 readings was used for the data analysis. Other peptides were labelled with 7-methoxycoumarin-4-acetic acid (MCA, fluorophore) and 2,4-dinitrophenyl (DNP, quencher). The protease assays using these peptides were conducted in black plates at 37°C using the POLARstar Optima (BMG Labtech). The assays were excited at 340 nm and emission was detected at 405 nm with a gain of 1000, the assays were monitored every 20 s or at the minimum cycle time for up to 40 min. The Omega software was used to calculate the maximum rate from a minimum of 6 time points for each assay. The REPLi library of peptides (Mimotopes, Melbourne, Australia) was also assayed with CtHtrA in the POLARstar Optima using similar assay conditions to those described above. Substrate only and protease only assay controls were conducted for every experiment and protease assays were typically conducted in triplicate on at least two different days. The assay results shown are the maximal rate observed from three or more different assays and adjusted for protein concentration. The assay results shown for the fluorescent compounds have been normalised for the amount of fluorescent emission detected using a standard curve of known concentrations of the MCA fluorophore under the identical assay conditions. All of the peptides used in this work were synthesised commercially to 95% purity or greater (Mimotopes, Melbourne, Australia). All protease assays were conducted minimally in duplicate on three separate occasions.

CtHtrA R373A/R299W = assay: Oligomerisation assay, mutated protein; assay type: biochemical, Chlamydia trachomatis; conditions: R373A/R299W mutant, 10 mins incubation
Text: This activation was very similar to that observed for CtHtrA, and was the only condition during which any of the mutated proteins oligomerised in a similar profile to CtHtrA.
as §2, with “All assays were conducted in duplicate on three separate occasions with at least two gels of each experiment completed for each assay condition.” left out

CtHtrA R299W = assay: Oligomerisation assay, mutated protein; assay type: biochemical, Chlamydia trachomatis; conditions: R299W mutant, 10 mins incubation
Procedure: as §1, §2

CtHtrA R373A = assay: Oligomerisation assay, mutated protein; assay type: biochemical, Chlamydia trachomatis; conditions: R373A mutant, 10 mins incubation
Procedure: as §1, §2

Row | Substance | Kcat/Km (CtHtrA [5]) | Km (CtHtrA [5]) | Vmax (CtHtrA [5]) | other results
1 | H-LAHMMNCGARMIF-OH [PmpC, C-terminal 13 residues of outer membrane ß-barrel PmpC] | – | – | – | CtHtrA oligomer formation induced by activator (CtHtrA [1]): activated the formation of 12-mer; effect of activator on rate of CtHtrA proteolysis of Bcas1 (CtHtrA [2]): did not increase the rate of proteolysis of Bcas1
2 | MCA-ENLHLPLPIIF-DNP [Bcas1, model ß-casein peptide substrate based on a ß-casein cleavage site] | – | – | – | cleavage sites observed by LC-MS-MS (CtHtrA [3]): Two cleavage sites
3 | MCA-IRRVSYSF-DNP | – | – | – | viability as substrate for CtHtrA (CtHtrA [4]): not a viable substrate
4 | MFKLI-pNA | 1084.8 M⁻¹ s⁻¹ | 62 µM | 4.046 mM sec^−1, µM CtHtrA^−1 | –
5 | MFQLI-pNA [pNA peptide substrate, P3 modification] | 21.2 M⁻¹ s⁻¹ | 141 µM | 0.1796 mM sec^−1, µM CtHtrA^−1 | –
6 | MFRLI-pNA [pNA peptide substrate, P3 modification] | 106.22 M⁻¹ s⁻¹ | 2910 µM | 18.53 mM sec^−1, µM CtHtrA^−1 | –
7 | PMFKLI-pNA [pNA peptide substrate, 1 residue less] | 526.7 M⁻¹ s⁻¹ | 314 µM | 9.931 mM sec^−1, µM CtHtrA^−1 | –
8 | insulin: previously demonstrated in vitro chaperone substrate of CtHtrA [reference compound] | – | – | – | CtHtrA oligomer formation induced by activator (CtHtrA [1]): activated to 24-mers with little hexamer visible; oligomer formation induced by activator (CtHtrA R373A/R299W): did not form a similar profile of oligomers as wild-type CtHtrA; oligomer formation induced by activator (CtHtrA R299W): mainly hexamer; oligomer formation induced by activator (CtHtrA R373A): mainly detected as hexamer
